Assays:
Serine protease 1 = Serine protease 1 (Homo sapiens, UniProt P07477); assay: The value of binding constant measured against human trypsin
Coagulation factor VII = biological target: T1, Coagulation factor VII (Homo sapiens, UniProt P08709); assay: The value of binding constant measured against coagulation factor VII
T1 sequence (P08709 whole entry): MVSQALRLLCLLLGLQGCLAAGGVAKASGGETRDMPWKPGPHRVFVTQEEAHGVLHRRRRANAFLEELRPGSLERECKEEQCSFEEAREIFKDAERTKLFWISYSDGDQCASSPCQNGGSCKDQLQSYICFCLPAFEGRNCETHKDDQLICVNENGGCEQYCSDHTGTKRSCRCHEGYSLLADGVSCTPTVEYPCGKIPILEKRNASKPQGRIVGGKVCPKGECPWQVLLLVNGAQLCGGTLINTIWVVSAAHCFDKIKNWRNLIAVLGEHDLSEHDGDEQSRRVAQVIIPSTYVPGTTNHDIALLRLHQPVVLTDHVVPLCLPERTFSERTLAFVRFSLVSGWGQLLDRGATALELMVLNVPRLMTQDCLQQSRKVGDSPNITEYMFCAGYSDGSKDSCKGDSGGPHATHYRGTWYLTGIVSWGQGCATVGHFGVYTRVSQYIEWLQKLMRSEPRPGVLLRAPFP

Coagulation factor X = Coagulation factor X (Homo sapiens, UniProt P00742); assay: The value of binding constant measured against coagulation factor X (factor Xa)
Prothrombin = Prothrombin (Homo sapiens, UniProt P00734); assay: The value of binding constant measured against human Thrombin

Chain of Coagulation factor X (P00742 41-179 limits assumed): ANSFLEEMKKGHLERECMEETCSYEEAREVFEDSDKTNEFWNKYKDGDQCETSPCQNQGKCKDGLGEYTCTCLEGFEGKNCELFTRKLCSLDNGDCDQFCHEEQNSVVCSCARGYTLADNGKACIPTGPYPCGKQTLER
Chain of Coagulation factor X (P00742 235-488 limits assumed): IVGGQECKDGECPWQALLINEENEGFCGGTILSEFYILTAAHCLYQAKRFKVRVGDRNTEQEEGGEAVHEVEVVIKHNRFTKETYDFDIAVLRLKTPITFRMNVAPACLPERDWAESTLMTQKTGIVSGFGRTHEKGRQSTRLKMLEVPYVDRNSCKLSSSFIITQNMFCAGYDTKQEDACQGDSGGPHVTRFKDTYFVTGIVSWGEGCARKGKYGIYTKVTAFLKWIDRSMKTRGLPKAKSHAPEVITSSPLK
Chain of Serine protease 1 (P07477 whole entry): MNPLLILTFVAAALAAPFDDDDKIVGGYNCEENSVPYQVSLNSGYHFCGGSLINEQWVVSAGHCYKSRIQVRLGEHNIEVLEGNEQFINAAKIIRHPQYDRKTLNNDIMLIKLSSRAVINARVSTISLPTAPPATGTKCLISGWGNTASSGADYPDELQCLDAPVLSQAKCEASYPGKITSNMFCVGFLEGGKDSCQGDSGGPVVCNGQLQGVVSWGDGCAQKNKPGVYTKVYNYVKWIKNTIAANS

Row | SMILES | Ki (Serine protease 1) [nM] | Ki (Coagulation factor VII) [nM] | Ki (Coagulation factor X) [nM] | Ki (Prothrombin) [nM]
1 | COc1ccc(C(Nc2ccc(C(=N)N)cc2)C(=O)NCc2ccccc2)cc1OC (stereo unspecified) | 1700 | 350 | 30000 | 460
2 | CCOc1ccc(CNc2ccc(C(=N)N)cc2)cc1OCC | 2000 |  | 39000 | 4500
3 | COc1cc(C(Nc2ccc(C(=N)N)cc2)C(=O)NCc2ccccc2)c(S(=O)(=O)c2ccccc2)cc1OCc1ccccc1 (stereo unspecified) | 420 | 160 | > 74000 | 1700
4 | COc1cc(CNc2ccc(C(=N)N)cc2)ccc1OCc1ccccc1 | 580 | 1000 | 1200 | 270
5 | CCOc1cc(C(Nc2ccc(C(=N)N)cc2)C(=O)NCc2ccccc2)ccc1OCc1ccccc1 (stereo unspecified) | 1100 | 130 | 4500 | 48
6 | CCOc1ccc(C(Nc2ccc(C(=N)N)cc2)C(=O)NCc2ccccc2)cc1OCC (stereo unspecified) | 2000 | 40 | 19000 | 570

These reach a lower Ki (Serine protease 1). Values come first.

Row | Ki (Serine protease 1) [nM] | Ki (Coagulation factor VII) [nM] | Ki (Coagulation factor X) [nM] | Ki (Prothrombin) [nM] | SMILES
7 | 400 | 380 | 26000 | 1400 | COc1cc(CNc2ccc(C(=N)N)cc2)c(NS(C)(=O)=O)cc1OCc1ccccc1
8 | 210 | 220 | 5300 | 43 | COc1cc(C(Nc2ccc(C(=N)N)cc2)C(=O)NCc2ccccc2)ccc1OCc1ccccc1 (stereo unspecified)
9 | 50 |  | 12400 | 540 | COc1cc([C@@H](Nc2ccc(C(=N)N)cc2)C(=O)N[C@H](C(=O)O)c2ccccc2)c(S(=O)(=O)c2ccccc2)cc1OCc1ccccc1
10 | 80 | 7 | 19000 | 6400 | COc1cc([C@@H](Nc2ccc(C(=N)N)cc2)C(=O)N[C@H](C(=O)O)c2ccccc2)c(C(=O)Cc2ccccc2)cc1OCc1ccccc1
11 | 40 |  | 8000 | 35 | COc1cc([C@@H](Nc2ccc(C(=N)N)cc2)C(=O)N[C@H](C(=O)O)c2ccccc2)ccc1OCc1ccccc1

From ChEMBL document CHEMBL1144307, “Design of selective phenylglycine amide tissue factor/factor VIIa inhibitors” (Bioorg Med Chem Lett, 2005)
